# In PubChem BioAssay (NCI):
#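 48-hour exposure; five concentrations; linearly interpolated endpoints. TGI denotes the concentration required for complete inhibition of growth.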
# Experiments:
# Assay in all cases: growth of human tumour cells (NCI), 48 h
# A498 renal = system: A498 renal
# NCI-H460 lung = system: NCI-H460 lung
# NCI-H226 lung = system: NCI-H226 lung
# NCI-H23 lung = system: NCI-H23 lung
# HCC-2998 colon = system: HCC-2998 colon
# MDA-N = system: MDA-N
# MDA-MB-231 breast = system: MDA-MB-231 breast
# OVCAR-3 ovarian = system: OVCAR-3 ovarian
# MOLT-4 leukemia = system: MOLT-4 leukemia
# TK-10 renal = system: TK-10 renal
# CCRF-CEM leukemia = system: CCRF-CEM leukemia
# SN12C renal = system: SN12C renal
# T-47D breast = system: T-47D breast
# OVCAR-5 ovarian = system: OVCAR-5 ovarian
# 786-0 renal = system: 786-0 renal
# BT-549 breast = system: BT-549 breast
# OVCAR-4 ovarian = system: OVCAR-4 ovarian
# HOP-62 NSCLC = system: HOP-62 NSCLC
# OVCAR-8 ovarian = system: OVCAR-8 ovarian
# LOX IMVI melanoma = system: LOX IMVI melanoma
# CAKI-1 renal = system: CAKI-1 renal
# IGROV1 ovarian = system: IGROV1 ovarian
# MDA-MB-435 = system: MDA-MB-435
# RPMI-8226 leukemia = system: RPMI-8226 leukemia
# UACC-257 melanoma = system: UACC-257 melanoma
# SK-MEL-28 melanoma = system: SK-MEL-28 melanoma
# MALME-3M melanoma = system: MALME-3M melanoma
# SK-MEL-5 melanoma = system: SK-MEL-5 melanoma
# SK-MEL-2 melanoma = system: SK-MEL-2 melanoma
# PC-3 prostate = system: PC-3 prostate
# NCI-H522 lung = system: NCI-H522 lung
# M14 melanoma = system: M14 melanoma
# SR leukemia = system: SR leukemia
# DU-145 prostate = system: DU-145 prostate
# A549 NSCLC = system: A549 NSCLC
# HT29 colon = system: HT29 colon
# HCT-116 colon = system: HCT-116 colon
# ACHN renal = system: ACHN renal
# SNB-19 CNS = system: SNB-19 CNS
# K-562 leukemia = system: K-562 leukemia
# HL-60(TB) leukemia = system: HL-60(TB) leukemia
# HCT-15 colon = system: HCT-15 colon
# SW-620 colon = system: SW-620 colon
# SNB-75 CNS = system: SNB-75 CNS
# MCF7 breast = system: MCF7 breast
# UACC-62 melanoma = system: UACC-62 melanoma
# SF-268 CNS = system: SF-268 CNS
# UO-31 renal = system: UO-31 renal
# U251 CNS = system: U251 CNS
# HOP-92 NSCLC = system: HOP-92 NSCLC
# KM12 colon = system: KM12 colon
# RXF 393 renal = system: RXF 393 renal
# EKVX NSCLC = system: EKVX NSCLC
# SF-539 CNS = system: SF-539 CNS
# SK-OV-3 ovarian = system: SK-OV-3 ovarian
# HS 578T breast = system: HS 578T breast
# SF-295 CNS = system: SF-295 CNS
# COLO 205 colon = system: COLO 205 colon
# NCI/ADR-RES ovarian = system: NCI/ADR-RES ovarian
structure (smiles),measurement,setting,value
Cc1[nH]c(=O)nc(N/N=C/c2c3ccccc3c(Cl)c3ccccc23)c1C(=O)Nc1ccc(Cl)cc1,TGI,A498 renal,> 100 µM
same,TGI,NCI-H460 lung,> 100 µM
same,TGI,NCI-H226 lung,> 100 µM
same,TGI,NCI-H23 lung,> 100 µM
same,TGI,HCC-2998 colon,> 100 µM
same,TGI,MDA-N,> 100 µM
same,TGI,MDA-MB-231 breast,> 100 µM
same,TGI,OVCAR-3 ovarian,> 100 µM
same,TGI,MOLT-4 leukemia,> 100 µM
same,TGI,TK-10 renal,> 100 µM
same,TGI,CCRF-CEM leukemia,89.3 µM
same,TGI,SN12C renal,> 100 µM
same,TGI,T-47D breast,> 100 µM
same,TGI,OVCAR-5 ovarian,> 100 µM
same,TGI,786-0 renal,> 100 µM
same,TGI,BT-549 breast,> 100 µM
same,TGI,OVCAR-4 ovarian,> 100 µM
same,TGI,HOP-62 NSCLC,> 100 µM
same,TGI,OVCAR-8 ovarian,> 100 µM
same,TGI,LOX IMVI melanoma,> 100 µM
same,TGI,CAKI-1 renal,> 100 µM
same,TGI,IGROV1 ovarian,> 100 µM
same,TGI,MDA-MB-435,> 100 µM
same,TGI,RPMI-8226 leukemia,> 100 µM
same,TGI,UACC-257 melanoma,> 100 µM
same,TGI,SK-MEL-28 melanoma,> 100 µM
same,TGI,MALME-3M melanoma,> 100 µM
same,TGI,SK-MEL-5 melanoma,> 100 µM
same,TGI,SK-MEL-2 melanoma,> 100 µM
same,TGI,PC-3 prostate,> 100 µM
same,TGI,NCI-H522 lung,> 100 µM
same,TGI,M14 melanoma,> 100 µM
same,TGI,SR leukemia,> 100 µM
same,TGI,DU-145 prostate,> 100 µM
same,TGI,A549 NSCLC,> 100 µM
same,TGI,HT29 colon,> 100 µM
same,TGI,HCT-116 colon,> 100 µM
same,TGI,ACHN renal,> 100 µM
same,TGI,SNB-19 CNS,> 100 µM
same,TGI,K-562 leukemia,> 100 µM
same,TGI,HL-60(TB) leukemia,44.7 µM
same,TGI,HCT-15 colon,> 100 µM
same,TGI,SW-620 colon,> 100 µM
same,TGI,SNB-75 CNS,> 100 µM
same,TGI,MCF7 breast,> 100 µM
same,TGI,UACC-62 melanoma,> 100 µM
same,TGI,SF-268 CNS,> 100 µM
same,TGI,UO-31 renal,> 100 µM
same,TGI,U251 CNS,> 100 µM
Nc1cc(OCC2CCCCC2)nc(N)n1,TGI,HOP-92 NSCLC,> 100 µM
same,TGI,KM12 colon,> 100 µM
same,TGI,NCI-H460 lung,> 100 µM
same,TGI,NCI-H226 lung,> 100 µM
same,TGI,NCI-H23 lung,> 100 µM
same,TGI,RXF 393 renal,> 100 µM
same,TGI,HCC-2998 colon,> 100 µM
same,TGI,MDA-N,> 100 µM
same,TGI,EKVX NSCLC,> 100 µM
same,TGI,MDA-MB-231 breast,> 100 µM
same,TGI,OVCAR-3 ovarian,> 100 µM
same,TGI,MOLT-4 leukemia,> 100 µM
same,TGI,TK-10 renal,> 100 µM
same,TGI,CCRF-CEM leukemia,> 100 µM
same,TGI,SN12C renal,> 100 µM
same,TGI,OVCAR-5 ovarian,> 100 µM
same,TGI,786-0 renal,> 100 µM
same,TGI,BT-549 breast,> 100 µM
same,TGI,OVCAR-4 ovarian,> 100 µM
same,TGI,HOP-62 NSCLC,> 100 µM
same,TGI,OVCAR-8 ovarian,> 100 µM
same,TGI,LOX IMVI melanoma,> 100 µM
same,TGI,CAKI-1 renal,> 100 µM
same,TGI,SF-539 CNS,> 100 µM
same,TGI,IGROV1 ovarian,> 100 µM
same,TGI,SK-OV-3 ovarian,> 100 µM
same,TGI,MDA-MB-435,> 100 µM
same,TGI,RPMI-8226 leukemia,> 100 µM
same,TGI,HS 578T breast,> 100 µM
same,TGI,UACC-257 melanoma,> 100 µM
same,TGI,SK-MEL-28 melanoma,> 100 µM
same,TGI,MALME-3M melanoma,> 100 µM
same,TGI,SK-MEL-5 melanoma,> 100 µM
same,TGI,SK-MEL-2 melanoma,> 100 µM
same,TGI,PC-3 prostate,> 100 µM
same,TGI,NCI-H522 lung,> 100 µM
same,TGI,SF-295 CNS,> 100 µM
same,TGI,M14 melanoma,> 100 µM
same,TGI,COLO 205 colon,> 100 µM
same,TGI,DU-145 prostate,> 100 µM
same,TGI,A549 NSCLC,> 100 µM
same,TGI,NCI/ADR-RES ovarian,> 100 µM
same,TGI,HT29 colon,> 100 µM
same,TGI,HCT-116 colon,> 100 µM
same,TGI,ACHN renal,> 100 µM
same,TGI,SNB-19 CNS,> 100 µM
same,TGI,K-562 leukemia,> 100 µM
same,TGI,HL-60(TB) leukemia,> 100 µM
same,TGI,HCT-15 colon,> 100 µM
same,TGI,SW-620 colon,> 100 µM
same,TGI,SNB-75 CNS,> 100 µM
same,TGI,UACC-62 melanoma,> 100 µM
same,TGI,SF-268 CNS,> 100 µM
same,TGI,UO-31 renal,> 100 µM
same,TGI,U251 CNS,> 100 µM
